From ChEMBL document CHEMBL4507281, “Data for DCP probe BI-4394” (2021)

What was measured:
[1] = target: Serine/threonine-protein kinase D2 (Homo sapiens) (UniProt Q9BZL6); conditions: Compound concentration 100.0 nM
[2] = target: Interleukin-1 receptor-associated kinase 3 (Homo sapiens) (UniProt Q9Y616); conditions: Compound concentration 100.0 nM
[3] = target: Serine/threonine-protein kinase PRP4 homolog (Homo sapiens) (UniProt Q13523); conditions: Compound concentration 100.0 nM
[4] = target: Cyclin-dependent kinase 3 (Homo sapiens) (UniProt Q00526); conditions: Compound concentration 100.0 nM
[5] = target: Serine/threonine-protein kinase D1 (Homo sapiens) (UniProt Q15139); conditions: Compound concentration 100.0 nM
[6] = target: Bone morphogenetic protein receptor type-1B (Homo sapiens) (UniProt O00238); conditions: Compound concentration 100.0 nM
Chain of Bone morphogenetic protein receptor type-1B (Homo sapiens) (O00238 whole entry): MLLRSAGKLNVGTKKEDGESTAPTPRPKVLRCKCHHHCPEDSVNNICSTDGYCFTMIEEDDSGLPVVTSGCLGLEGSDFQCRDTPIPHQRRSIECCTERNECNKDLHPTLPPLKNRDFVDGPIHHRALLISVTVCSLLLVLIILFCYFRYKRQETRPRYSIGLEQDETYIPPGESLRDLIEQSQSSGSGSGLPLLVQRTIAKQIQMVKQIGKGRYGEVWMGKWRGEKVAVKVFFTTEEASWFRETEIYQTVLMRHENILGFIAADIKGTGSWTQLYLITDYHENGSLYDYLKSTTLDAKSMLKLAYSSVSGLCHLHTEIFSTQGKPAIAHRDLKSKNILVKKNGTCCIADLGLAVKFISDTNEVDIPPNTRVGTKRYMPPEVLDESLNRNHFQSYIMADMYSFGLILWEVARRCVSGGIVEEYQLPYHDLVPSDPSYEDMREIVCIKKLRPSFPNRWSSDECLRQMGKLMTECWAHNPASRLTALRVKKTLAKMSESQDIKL

[7] = target: Serine/threonine-protein kinase DCLK1 (Homo sapiens) (UniProt O15075); conditions: Compound concentration 100.0 nM
Chain of Serine/threonine-protein kinase DCLK1 (Homo sapiens) (O15075 whole entry): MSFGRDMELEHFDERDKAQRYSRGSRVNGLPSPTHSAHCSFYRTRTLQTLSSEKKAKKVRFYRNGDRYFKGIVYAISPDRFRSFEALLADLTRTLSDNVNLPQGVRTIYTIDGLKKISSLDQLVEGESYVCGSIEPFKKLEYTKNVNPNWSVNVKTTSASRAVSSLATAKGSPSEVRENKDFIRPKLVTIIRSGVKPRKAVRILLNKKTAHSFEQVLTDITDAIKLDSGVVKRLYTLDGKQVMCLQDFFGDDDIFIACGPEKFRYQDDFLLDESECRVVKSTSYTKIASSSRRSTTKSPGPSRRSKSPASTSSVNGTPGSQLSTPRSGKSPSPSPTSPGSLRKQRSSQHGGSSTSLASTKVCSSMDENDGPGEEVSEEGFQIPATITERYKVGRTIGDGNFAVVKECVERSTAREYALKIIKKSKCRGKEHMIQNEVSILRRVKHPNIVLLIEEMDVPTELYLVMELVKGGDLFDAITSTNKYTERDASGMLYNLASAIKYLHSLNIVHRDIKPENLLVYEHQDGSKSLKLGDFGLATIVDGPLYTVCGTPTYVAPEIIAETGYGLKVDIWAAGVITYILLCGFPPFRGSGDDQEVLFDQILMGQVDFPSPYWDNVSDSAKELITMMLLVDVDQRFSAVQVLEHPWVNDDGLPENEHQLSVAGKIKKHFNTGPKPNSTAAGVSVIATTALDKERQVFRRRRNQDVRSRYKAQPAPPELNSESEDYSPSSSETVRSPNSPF

[8] = target: Serine/threonine-protein kinase haspin (Homo sapiens) (UniProt Q8TF76); conditions: Compound concentration 100.0 nM
[9] = target: NUAK family SNF1-like kinase 1 (Homo sapiens) (UniProt O60285); conditions: Compound concentration 100.0 nM
[10] = target: T1, Tyrosine-protein kinase JAK3 (Homo sapiens) (UniProt P52333); conditions: Compound concentration 100.0 nM
T1 sequence (whole entry): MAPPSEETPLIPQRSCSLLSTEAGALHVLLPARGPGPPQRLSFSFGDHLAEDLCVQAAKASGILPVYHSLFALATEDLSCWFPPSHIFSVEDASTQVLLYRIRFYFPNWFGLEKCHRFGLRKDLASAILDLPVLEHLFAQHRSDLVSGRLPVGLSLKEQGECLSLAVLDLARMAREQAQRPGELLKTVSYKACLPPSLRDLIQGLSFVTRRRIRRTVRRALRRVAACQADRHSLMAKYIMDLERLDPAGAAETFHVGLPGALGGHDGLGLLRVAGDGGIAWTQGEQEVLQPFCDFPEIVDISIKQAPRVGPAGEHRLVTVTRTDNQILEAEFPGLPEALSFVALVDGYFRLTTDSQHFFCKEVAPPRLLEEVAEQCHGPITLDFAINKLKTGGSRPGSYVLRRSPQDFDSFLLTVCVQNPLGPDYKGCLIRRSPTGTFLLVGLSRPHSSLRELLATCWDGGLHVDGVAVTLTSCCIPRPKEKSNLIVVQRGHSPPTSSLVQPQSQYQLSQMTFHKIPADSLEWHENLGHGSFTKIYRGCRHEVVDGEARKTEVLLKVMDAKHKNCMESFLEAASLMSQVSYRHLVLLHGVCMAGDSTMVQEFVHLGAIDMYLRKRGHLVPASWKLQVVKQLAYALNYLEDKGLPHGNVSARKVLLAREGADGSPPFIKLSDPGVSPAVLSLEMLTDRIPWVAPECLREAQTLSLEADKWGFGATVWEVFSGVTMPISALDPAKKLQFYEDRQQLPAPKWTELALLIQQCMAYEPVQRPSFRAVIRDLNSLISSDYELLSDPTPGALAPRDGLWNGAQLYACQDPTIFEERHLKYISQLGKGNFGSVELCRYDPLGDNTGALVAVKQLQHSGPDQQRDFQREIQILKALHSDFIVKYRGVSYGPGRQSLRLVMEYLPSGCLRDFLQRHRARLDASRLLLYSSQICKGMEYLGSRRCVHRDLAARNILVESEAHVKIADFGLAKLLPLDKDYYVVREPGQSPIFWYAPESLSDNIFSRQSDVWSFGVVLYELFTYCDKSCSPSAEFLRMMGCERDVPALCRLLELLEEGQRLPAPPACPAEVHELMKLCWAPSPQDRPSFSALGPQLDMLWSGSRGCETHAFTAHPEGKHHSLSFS

[11] = target: Mitogen-activated protein kinase kinase kinase 11 (Homo sapiens) (UniProt Q16584); conditions: Compound concentration 100.0 nM
Chain of Mitogen-activated protein kinase kinase kinase 11 (Homo sapiens) (Q16584 whole entry, looked up): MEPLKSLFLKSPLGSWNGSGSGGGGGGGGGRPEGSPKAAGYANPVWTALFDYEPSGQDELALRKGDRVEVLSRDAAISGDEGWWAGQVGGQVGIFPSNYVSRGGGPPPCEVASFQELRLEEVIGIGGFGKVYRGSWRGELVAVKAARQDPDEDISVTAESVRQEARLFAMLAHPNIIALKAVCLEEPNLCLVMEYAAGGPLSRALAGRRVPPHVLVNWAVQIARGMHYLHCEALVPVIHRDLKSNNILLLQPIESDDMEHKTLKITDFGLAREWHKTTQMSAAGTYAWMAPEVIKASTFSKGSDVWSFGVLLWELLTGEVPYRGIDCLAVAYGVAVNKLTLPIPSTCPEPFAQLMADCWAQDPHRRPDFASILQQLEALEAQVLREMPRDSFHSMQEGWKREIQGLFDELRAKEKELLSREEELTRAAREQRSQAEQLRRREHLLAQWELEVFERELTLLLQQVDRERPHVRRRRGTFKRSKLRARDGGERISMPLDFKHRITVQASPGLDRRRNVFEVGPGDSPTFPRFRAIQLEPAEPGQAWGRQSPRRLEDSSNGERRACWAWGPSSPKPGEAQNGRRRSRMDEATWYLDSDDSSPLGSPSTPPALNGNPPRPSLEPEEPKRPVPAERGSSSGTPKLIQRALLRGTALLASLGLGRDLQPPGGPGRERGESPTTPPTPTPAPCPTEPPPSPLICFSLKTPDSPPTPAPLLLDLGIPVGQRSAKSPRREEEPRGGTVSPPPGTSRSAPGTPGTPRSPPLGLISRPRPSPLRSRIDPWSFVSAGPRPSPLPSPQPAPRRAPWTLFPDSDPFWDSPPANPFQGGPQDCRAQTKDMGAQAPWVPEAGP

[12] = target: Serine/threonine-protein kinase 26 (Homo sapiens) (UniProt Q9P289); conditions: Compound concentration 100.0 nM
[13] = target: Myosin light chain kinase (Homo sapiens) (UniProt Q32MK0); conditions: Compound concentration 100.0 nM
[14] = target: Phosphatidylinositol 4,5-bisphosphate 3-kinase catalytic subunit gamma isoform (Homo sapiens) (UniProt P48736); conditions: Compound concentration 100.0 nM
[15] = system: Phosphatidylinositol 4,5-bisphosphate 3-kinase catalytic subunit alpha isoform (Homo sapiens), P42336 [H1047Y]; conditions: Compound concentration 100.0 nM
Chain of Phosphatidylinositol 4,5-bisphosphate 3-kinase catalytic subunit alpha isoform (Homo sapiens), P42336 [H1047Y] (P42336 whole entry H1047Y, canonical isoform): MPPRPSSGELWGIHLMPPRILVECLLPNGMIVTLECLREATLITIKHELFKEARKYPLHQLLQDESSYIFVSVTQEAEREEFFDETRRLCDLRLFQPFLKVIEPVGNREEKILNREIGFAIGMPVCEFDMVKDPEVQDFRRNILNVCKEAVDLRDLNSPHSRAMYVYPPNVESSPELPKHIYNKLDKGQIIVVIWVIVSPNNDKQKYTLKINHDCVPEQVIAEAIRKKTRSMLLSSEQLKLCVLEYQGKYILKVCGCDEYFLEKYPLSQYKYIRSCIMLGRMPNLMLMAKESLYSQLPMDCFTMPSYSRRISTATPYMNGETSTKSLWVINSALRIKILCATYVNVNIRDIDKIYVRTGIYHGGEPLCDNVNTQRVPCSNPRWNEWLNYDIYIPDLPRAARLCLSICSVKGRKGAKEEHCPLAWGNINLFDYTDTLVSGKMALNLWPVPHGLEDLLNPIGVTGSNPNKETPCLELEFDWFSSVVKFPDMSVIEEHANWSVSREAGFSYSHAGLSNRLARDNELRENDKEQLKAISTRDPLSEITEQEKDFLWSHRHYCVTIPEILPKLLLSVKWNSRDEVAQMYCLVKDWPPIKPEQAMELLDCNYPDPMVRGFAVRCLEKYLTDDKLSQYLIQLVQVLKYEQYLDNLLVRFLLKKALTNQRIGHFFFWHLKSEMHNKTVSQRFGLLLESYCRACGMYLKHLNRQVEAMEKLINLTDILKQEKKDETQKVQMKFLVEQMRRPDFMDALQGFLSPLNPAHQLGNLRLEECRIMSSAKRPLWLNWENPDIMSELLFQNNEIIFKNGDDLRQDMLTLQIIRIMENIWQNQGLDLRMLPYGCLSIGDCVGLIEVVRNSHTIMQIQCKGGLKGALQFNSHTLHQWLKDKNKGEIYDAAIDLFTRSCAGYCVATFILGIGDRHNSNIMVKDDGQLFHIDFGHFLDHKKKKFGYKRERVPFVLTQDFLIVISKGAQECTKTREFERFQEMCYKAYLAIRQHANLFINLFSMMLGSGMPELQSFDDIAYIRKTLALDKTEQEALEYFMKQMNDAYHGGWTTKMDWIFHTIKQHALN

[16] = target: Calcium-dependent protein kinase 1 (Plasmodium falciparum) (UniProt P62344); conditions: Compound concentration 100.0 nM
[17] = system: Tyrosine-protein kinase ABL1 (Homo sapiens), P00519 [F317I]; conditions: Compound concentration 100.0 nM
[18] = target: Casein kinase I isoform alpha (Homo sapiens) (UniProt P48729); conditions: Compound concentration 100.0 nM
[19] = target: Mitogen-activated protein kinase 4 (Homo sapiens) (UniProt P31152); conditions: Compound concentration 100.0 nM
[20] = target: 5-hydroxytryptamine receptor 2B (Homo sapiens) (UniProt P41595); conditions: Compound concentration 10.0 uM
[21] = target: Dual specificity protein kinase CLK4 (Homo sapiens) (UniProt Q9HAZ1); conditions: Compound concentration 100.0 nM
[22] = target: Beta-2 adrenergic receptor (Homo sapiens) (UniProt P07550); conditions: Compound concentration 10.0 uM
Chain of Beta-2 adrenergic receptor (Homo sapiens) (P07550 whole entry, looked up): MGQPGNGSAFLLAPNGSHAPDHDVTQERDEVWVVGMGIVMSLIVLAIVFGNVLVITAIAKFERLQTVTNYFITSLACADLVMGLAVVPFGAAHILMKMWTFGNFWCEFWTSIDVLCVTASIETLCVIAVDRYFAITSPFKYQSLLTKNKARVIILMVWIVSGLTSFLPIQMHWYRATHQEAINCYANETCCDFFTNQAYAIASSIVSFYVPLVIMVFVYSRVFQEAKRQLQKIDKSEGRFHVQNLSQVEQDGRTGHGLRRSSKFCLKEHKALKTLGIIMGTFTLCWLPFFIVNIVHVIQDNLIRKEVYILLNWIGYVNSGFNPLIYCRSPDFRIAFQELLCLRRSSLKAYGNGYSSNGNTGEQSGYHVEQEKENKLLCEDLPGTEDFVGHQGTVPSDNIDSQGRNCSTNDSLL

[23] = target: Serine/threonine-protein kinase 38-like (Homo sapiens) (UniProt Q9Y2H1); conditions: Compound concentration 100.0 nM
[24] = target: Bone morphogenetic protein receptor type-2 (Homo sapiens) (UniProt Q13873); conditions: Compound concentration 100.0 nM
[25] = target: Tyrosine-protein kinase JAK2 (Homo sapiens) (UniProt O60674); conditions: Compound concentration 100.0 nM
[26] = target: Mitogen-activated protein kinase kinase kinase kinase 5 (Homo sapiens) (UniProt Q9Y4K4); conditions: Compound concentration 100.0 nM
Chain of Mitogen-activated protein kinase kinase kinase kinase 5 (Homo sapiens) (Q9Y4K4 whole entry, looked up): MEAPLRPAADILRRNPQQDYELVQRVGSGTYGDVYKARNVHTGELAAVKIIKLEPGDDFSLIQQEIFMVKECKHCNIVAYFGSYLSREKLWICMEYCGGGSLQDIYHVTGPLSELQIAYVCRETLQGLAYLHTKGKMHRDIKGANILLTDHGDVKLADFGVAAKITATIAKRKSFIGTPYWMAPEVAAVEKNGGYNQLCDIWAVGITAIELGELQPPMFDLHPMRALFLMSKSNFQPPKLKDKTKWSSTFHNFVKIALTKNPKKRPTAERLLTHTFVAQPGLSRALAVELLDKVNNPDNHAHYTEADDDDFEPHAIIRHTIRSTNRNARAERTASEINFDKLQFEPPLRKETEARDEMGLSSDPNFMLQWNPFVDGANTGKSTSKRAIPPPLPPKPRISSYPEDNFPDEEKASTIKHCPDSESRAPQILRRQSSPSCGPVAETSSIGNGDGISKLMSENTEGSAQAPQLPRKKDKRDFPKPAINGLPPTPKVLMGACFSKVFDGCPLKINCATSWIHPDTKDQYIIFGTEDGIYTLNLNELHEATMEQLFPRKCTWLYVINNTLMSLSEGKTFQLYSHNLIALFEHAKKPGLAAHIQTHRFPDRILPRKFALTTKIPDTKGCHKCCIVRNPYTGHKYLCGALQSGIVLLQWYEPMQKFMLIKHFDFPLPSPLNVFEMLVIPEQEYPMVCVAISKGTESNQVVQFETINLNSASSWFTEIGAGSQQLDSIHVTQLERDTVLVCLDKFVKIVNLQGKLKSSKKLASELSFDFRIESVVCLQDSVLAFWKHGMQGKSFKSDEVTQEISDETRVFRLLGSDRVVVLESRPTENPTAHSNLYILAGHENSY

[27] = target: Phosphatidylinositol 3-kinase catalytic subunit type 3 (Homo sapiens) (UniProt Q8NEB9); conditions: Compound concentration 100.0 nM
[28] = target: Beta-3 adrenergic receptor (Homo sapiens) (UniProt P13945); conditions: Compound concentration 10.0 uM
[29] = target: Cyclin-dependent kinase 4 (Homo sapiens) (UniProt P11802); conditions: Compound concentration 100.0 nM
[30] = target: Atypical kinase COQ8B, mitochondrial (Homo sapiens) (UniProt Q96D53); conditions: Compound concentration 100.0 nM

Chain of Interleukin-1 receptor-associated kinase 3 (Homo sapiens) (Q9Y616 whole entry): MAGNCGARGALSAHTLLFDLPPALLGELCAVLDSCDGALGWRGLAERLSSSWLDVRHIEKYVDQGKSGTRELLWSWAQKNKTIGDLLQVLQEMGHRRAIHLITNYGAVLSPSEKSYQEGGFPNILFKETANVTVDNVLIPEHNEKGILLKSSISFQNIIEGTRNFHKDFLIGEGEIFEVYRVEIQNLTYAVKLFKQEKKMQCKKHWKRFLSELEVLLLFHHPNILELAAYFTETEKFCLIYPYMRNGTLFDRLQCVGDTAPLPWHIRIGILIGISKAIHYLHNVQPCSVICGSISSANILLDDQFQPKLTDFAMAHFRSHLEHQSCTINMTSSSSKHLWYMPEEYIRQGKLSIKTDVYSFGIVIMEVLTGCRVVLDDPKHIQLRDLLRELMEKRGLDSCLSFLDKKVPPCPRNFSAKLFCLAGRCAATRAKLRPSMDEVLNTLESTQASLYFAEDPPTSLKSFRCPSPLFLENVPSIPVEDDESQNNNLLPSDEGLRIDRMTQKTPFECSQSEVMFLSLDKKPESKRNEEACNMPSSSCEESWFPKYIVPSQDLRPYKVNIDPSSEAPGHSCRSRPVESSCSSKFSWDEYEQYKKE

Structure (SMILES) | residual activity [1] [%] | residual activity [2] [%] | residual activity [3] [%] | residual activity [4] [%] | residual activity [5] [%] | residual activity [6] [%] | residual activity [7] [%] | residual activity [8] [%] | residual activity [9] [%] | residual activity [10] [%] | residual activity [11] [%] | residual activity [12] [%] | residual activity [13] [%] | residual activity [14] [%] | residual activity [15] [%] | residual activity [16] [%] | residual activity [17] [%] | residual activity [18] [%] | residual activity [19] [%] | inhibition [20] [%] | further results
Cn1nc(C(=O)NCc2ccc(C(=O)O)cc2)cc1-c1ccc2[nH]ccc2c1 [BI 4395] | 100 | 83 | 100 | 88 | 95 | 88 | 88 | 77 | 70 | 65 | 87 | 95 | 100 | 64 | 100 | 73 | 100 | 81 | 89 | -2.75 | residual activity [21]: 69%; inhibition [22]: 6.74%; residual activity [23]: 99%; residual activity [24]: 83%; residual activity [25]: 90%; residual activity [26]: 96%; residual activity [27]: 93%; inhibition [28]: 2.13%; residual activity [29]: 96%; residual activity [30]: 100%
CCOC(=O)c1cc2cc(-c3cc(C(=O)NCc4ccc(C(=O)O)cc4)nn3C)ccc2[nH]1 [BI 4394] | 100 | 100 | 89 | 43 | 75 | 96 | 86 | 77 | 100 | 82 | 88 | 81 | 89 | 90 | 77 | 100 | 84 | 88 | 86 | 8.13 | residual activity [21]: 89%; inhibition [22]: -7.76%; residual activity [23]: 72%; residual activity [24]: 82%; residual activity [25]: 95%; residual activity [26]: 93%; residual activity [27]: 80%; inhibition [28]: -6.63%; residual activity [29]: 82%; residual activity [30]: 100%
